What was measured:
h5-HT7R [1] = biological target: T1, h5-HT7R (Homo sapiens (Human), UniProt P34969); test: ERK1/2 and c-SRC phosphorylation by western blot in HEK-293 cells stably expressing h5-HT7R; format: cell-based; conditions: 10 μM of ligand or increasing concentrations, western blot
Procedure: (A, B, C, D, E, F) Time course of activation of ERK1/2 after stimulation of HEK-293 cells stably expressing h5-HT7R with various 5-HT7R ligands used at 10 μM. The cells were stimulated for the indicated periods and assayed for detection of phospho ERK1/2 by western blot analysis. […] Representative blots of three independent experiments are illustrated. The histogram on the right of each panel represents the results of densitometric analyses of three independent experiments. Data are means±SEM. * p<0.05; ** p<0.01; *** p<0.001 versus non stimulated cells (NS).
HEK-293 cells stably expressing h5-HT7R were stimulated with increasing concentrations of 5-CT or Serodolin for 7 minutes. Cells were lysed, and western blot analysis was performed. Representative Western blots from three independent experiments were shown in A-C. Quantification was performed by densitometric analyses from three independent experiments. Analyzed data were plotted versus log concentration for each compounds (A; B) or as bar graph (C) on the right panel.
Time course of activation of ERK1/2 after stimulation of HEK-293 cells stably expressing h5-HT7R with JLB060, a 5-HT7R ligand used at 10 μM. The cells were stimulated for the indicated periods and assayed for detection of phospho ERK1/2 by western blot analysis.
(§1) Treated cells were washed twice with cold PBS and lysed on ice for 30 min in lysis buffer containing 50 mM Tris pH 7.5, 150 mM NaCl, 10 mM EDTA, 1% Triton X-100 and the protease inhibitor cocktail. Cell lysates were centrifuged at 10,000×g for 10 min. Supernatant was then solubilized in Laemmli buffer with 0.1% β-mercaptoethanol. Samples were resolved by electrophoresis on 10% SDS-PAGE, and transferred electrophoretically to polyvinylidene fluoride (PVDF) membranes (GE Healthcare Life Sciences). […] membranes were washed in Tris-buffered saline (TBS; pH 7.4) containing 0.1% Tween-20 (TBS-T; 0.1%) and blocked with 5% (w/v) dry milk TBS-T 0.1% for 30 min. […] Blots were probed with anti-arrestin, anti-Phospho-ERK or anti-ERK antibody (1:2000), anti Phospho-SRC, anti SRC antibody, anti-HA or anti-GFP or anti-actin antibodies. Horseradish-peroxidase-conjugated goat anti-rabbit, anti-mouse or anti-rat antibodies (1:33,000) were used as secondary antibodies. Immunoreactive bands were detected using the Dura detection kit. Protein quantification on blots was performed using Quantity One software (Biorad).
as §1, with “12%” for “10%”, “with” for “with anti-arrestin,”, “anti-Phospho-ERK (1:2000)” for “anti-Phospho-ERK”, “anti-GAPDH” for “anti-ERK”, “(1:5000). […]” for “(1:2000), anti Phospho-SRC, anti SRC antibody, anti-HA or anti-GFP or anti-actin antibodies. Horseradish-peroxidase-conjugated goat anti-rabbit, anti-mouse or anti-rat antibodies (1:33,000) were used as secondary antibodies.”
ERK phosphorylation was monitored by western blotting after treatment of cells with 10 μM of ligands at different times ranging from 2 to 60 minutes.

human 5-HT2A receptor = human 5-HT2A receptor (Homo sapiens (Human), UniProt P28223); test: Radioligand binding competition, 5-HT2A; conditions: selectivity panel; for IC50: read-out: RLB 5-HT2A IC50; for Ki: read-out: RLB 5-HT2A Ki
Procedure: (§2) FIG. 14: Testing of 8 molecules for radioligand binding competition activity on recombinant human 5-HT1A, 5-HT2A, 5-HT2Cedited, 5-HT6, 5-HT7 and D2(long) receptors using filtration binding assays.
(§3) Radioligand Binding experiments were conducted with Epics Therapeutics membrane preparations. Receptor accession numbers, cellular background and reference compounds are shown in this table.
(§4) The new compounds have been tested by radioligand binding competition activity at the human 5-HT1A (FAST-0500B), 5-HT2A (FAST-0505B), 5-HT2Cedited (FAST-0507B), 5-HT6 (FAST-0509B), 5-HT7a (FAST-05111B) and D2(long) (FAST-0101B) receptors at seven (7) concentrations, in duplicate. […] Reference values thus obtained for the test were compared to historical values obtained from the same receptor and used to validate the experimental session. For replicate determinations, the maximum variability tolerated in the test was of +/−20% around the average of the replicates.
(§5) Dose-response data from test compounds were analyzed with XLfit (IDBS) software using nonlinear regression applied to a sigmoidal dose-response model and the following equation: • XL Fit fit Model 203: 4 Parameter Logistic Model • A: Bottom • B: TOP • C: LogEC50 • D: Hill

human 5-HT1A receptor = human 5-HT1A receptor (Homo sapiens (Human), UniProt P08908); test: Radioligand binding competition, 5-HT1A; conditions: selectivity panel; for IC50: read-out: RLB 5-HT1A IC50; for Ki: read-out: RLB 5-HT1A Ki
Procedure: as §2, §3, §4, §5

human 5-HT7a receptor = human 5-HT7a receptor (Homo sapiens (Human), UniProt P34969); test: Radioligand binding competition, filtration binding assay, 5-HT7a; conditions: affinity on 5-HT7 receptor, table of new compounds
Procedure: as §2, §3
Reference values thus obtained for the test were compared to historical values obtained from the same receptor and used to validate the experimental session. For replicate determinations, the maximum variability tolerated in the test was of +/−20% around the average of the replicates.
as §5

[2] = biological target: human 5-HT2Cedited receptor (Homo sapiens, UniProt P28335); test: Radioligand binding competition, 5-HT2Cedited; conditions: selectivity panel; for IC50: read-out: RLB 5-HT2Cedited IC50; for Ki: read-out: RLB 5-HT2Cedited Ki
Procedure: as §2, §3, §4, §5

h5-HT7R [3] = biological target: T1, h5-HT7R; test: cAMP accumulation (LANCE cAMP detection kit) in HEK-293 cells stably expressing h5-HT7R; format: cell-based; conditions: tested alone
Procedure: (B) HEK-293 cells stably expressing h5-HT7R were stimulated with 10 nM of 5-CT and increasing concentrations of products for one hour. After cell lysis, cAMP production was quantified by a LANCE cAMP detection kit (Perkin Elmer). […] Data points represent the means±SEM from three independent experiments performed in triplicate. The EC50 and IC50 for each drug was determined using GraphPad Prism software.
cAMP accumulation was measured with a LANCE™ cAMP detection kit (Perkin-Elmer Life Sciences, Boston, MA, USA). 12 h before experiment cells were starved. Forty-eight h after transfection, cells were harvested in Hank's balanced salt solution (HBSS) containing 5 mM HEPES, 1 mM isobutylmethylxanthine (IBMX) and 0.1% BSA, PH 7.4. After centrifugation (1000×g, 5 min), cells were resuspended in the same buffer (2×10^6 per ml). The ALEXA™ fluor 647 anti-cAMP antibody solution (1 μl) was added to the cell suspension (100 μl) and 5 μl aliquots of the mixture were dispensed in white 384-well microtiter plates (Optiplate, Perkin Elmer). The cells were then stimulated with different drugs. After 1 h incubation at room temperature in the dark, lysis buffer (0.35% Triton X-100, 10 mM CaCl2, 50 mM HEPES) containing LANCE EU-W8044 labeled streptavidin and biotinylated-cAMP was added to the cells (10 μL per well). After 2 h incubation at room temperature in the dark, the plates were read on a VictorV™ microplate reader (Perkin-Elmer Life Sciences). Concentration/response curves were analyzed using Prism 4 software.
HEK-293 fibroblast stably expressing 5-HT7 receptor were used to compare the effect of different 5-HT7R ligands on the classical Gαs-mediated activation of AC pathway. It was decided to evaluate the lead compounds from two series of ligands, Serodolin and MOA-51 (FIG. 1A).

h5-HT7R [4] = biological target: T1, h5-HT7R; test: AlphaScreen SureFire phospho-ERK and phospho-c-SRC assays; format: cell-based; conditions: pretreatment of cells, Serodolin stimulation
Procedure: FIG. 7: Serodolin induced ERK phosphorylation is dependent on c-SRC activation and requires proline-rich regions on 5-HT7R. […] Cells were lysed, and western blot analysis was performed. (B) The phosphorylation of ERK1/2 as well as phosphorylation of c-SRC were quantified on the same cell lysates using the AlphaScreen assays. Means±SEM of values from three experiments performed in triplicate. (C) The PXXP motif in the C-terminal tail of 5-HT7R has been mutated as described in the upper panel. The corresponding constructs encoding HA-tagged 5-HT7 receptor were transfected in HEK-293 cells as indicated (MutT1, mutT2 and mutT3), then the effect of 5-CT and Serodolin have been evaluated on ERK1/2 and c-SRC activation by Western blot analysis. Representative immunoblots of three independent experiments are illustrated.
The AlphaScreen SureFire phospho-ERK and phosphor-c-SRC assays (PerkinElmer) were used to quantify pERK1/2 and pc-SRC from HEK-293 cell lysates according to the manufacturer's instructions.
(2018) V1b vasopressin receptor trafficking and signaling: Role of arrestins, G proteins and Src kinase. Traffic 19, 58-82; Rey, A., Manen, D., Rizzoli, R., Caverzasio, J., and Ferrari, S. L. (2006) Proline-rich motifs in the parathyroid hormone (PTH)/PTH-related protein receptor C terminus mediate scaffolding of c-Src with beta-arrestin2 for ERK1/2 activation. J Biol Chem 281, 38181-38188). […] To determine whether one of these mechanisms was required for Serodolin-induced ERK phosphorylation, the inventors first evaluated the sensitivity of this activation to the c-SRC-specific tyrosine kinase inhibitor PP2. […]

C57BL/6 mice = test: Spared Nerve Injury (SNI) neuropathic pain model, Von Frey; conditions: s.c.
Procedure: Pregabalin, vehicle or compounds solutions are subcutaneously administrated for 8 consecutive days. • (A) Mechanical response threshold after the first administration (D+10). […] Positive control animals were treated with Pregabalin (5 mg/kg, sc). Statistical differences are indicated compared to vehicle group (Two-way RM ANOVA followed by Bonferroni post-hoc test: ***p<0.001, ** p<0.01, * p<0.05). […] Positive control animals were treated with Pregabalin (5 mg/kg, sc). Statistical differences are indicated compared to vehicle group (Two-way RM ANOVA followed by Bonferroni post-hoc test: ***p<0.001, ** p<0.01, * p<0.05). […] (Two-way RM ANOVA followed by Bonferroni post-hoc test: ***p<0.001, ** p<0.01, * p<0.05)
MOA51 and Serodolin (AIC01) compounds were diluted in NDT solution (NaCl 0.9%—DMSO 20%—Tween80 5%). […] AIC01 was resuspended at 0.5 mg/mL and administrated at a ratio of 100 μl per 10 g (dose of 5 mg/kg).
Experiment starts with 8 weeks old male C57B16J mice (from Charles River). Study was performed on 40 mice (2 mice were excluded during the study due to health guidelines) divided in 4 randomized groups. • Group A: s.c. injection at 5 mg/kg of pregabalin. • Group B: s.c. injection at 0.5 mg/kg of MOA51. • Group C: s.c. injection at 5 mg/kg of Serodolin (AIC01). • Group D: s.c. injection of NDT solution (referred as Vehicle hereafter).
Compounds solutions, pregabalin and vehicle were subcutaneously administrated (100 μl/10 g) for 9 consecutive days, starting 10 days after surgery. Ligature and transection of the common peroneal and tibial distal branches of the sciatic nerve was made leaving the sural branch intact. 7 days post-surgery, a decrease of threshold response to Von Frey filaments of ipsilateral hind-paw was observed corresponding to neuropathic pain apparition (mechanical allodynia). Mechanical threshold response of mice were measured with calibrated Von Frey filaments using the up/down method. Experimenter was blind to mice treatment. Measures are performed as follow: one baseline measure before surgery, one measure at D+10, D+12, D+14, D+16 and D+18 before drug's administration, and 1 h, 2 h post-drug administration. A supplementary measure 4 h post-drug administration was performed at D+10 and D+18.
Two-way RM ANOVA (followed by Bonferroni post-hoc test) was used to analysed time course response at D+10 and D+18. Area under the curve was determined with the 1 h and 2 h post-drug administration measures to investigated tolerance of repeated administration of compounds

human 5-HT2A receptor, sequence (P28223 whole entry): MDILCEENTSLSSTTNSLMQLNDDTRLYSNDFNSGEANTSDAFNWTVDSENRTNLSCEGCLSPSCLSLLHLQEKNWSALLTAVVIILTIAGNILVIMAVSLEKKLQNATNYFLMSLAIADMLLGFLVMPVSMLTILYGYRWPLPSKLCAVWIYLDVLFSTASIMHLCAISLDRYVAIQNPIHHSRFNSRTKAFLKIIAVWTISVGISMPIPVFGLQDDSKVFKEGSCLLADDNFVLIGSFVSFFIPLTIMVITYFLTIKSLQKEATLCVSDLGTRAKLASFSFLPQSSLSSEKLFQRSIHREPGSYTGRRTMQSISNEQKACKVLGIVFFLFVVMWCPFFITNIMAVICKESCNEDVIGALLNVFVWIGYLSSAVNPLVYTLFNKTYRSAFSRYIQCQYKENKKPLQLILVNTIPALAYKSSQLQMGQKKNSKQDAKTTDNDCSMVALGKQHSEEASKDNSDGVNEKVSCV
human 5-HT1A receptor, sequence (P08908 whole entry): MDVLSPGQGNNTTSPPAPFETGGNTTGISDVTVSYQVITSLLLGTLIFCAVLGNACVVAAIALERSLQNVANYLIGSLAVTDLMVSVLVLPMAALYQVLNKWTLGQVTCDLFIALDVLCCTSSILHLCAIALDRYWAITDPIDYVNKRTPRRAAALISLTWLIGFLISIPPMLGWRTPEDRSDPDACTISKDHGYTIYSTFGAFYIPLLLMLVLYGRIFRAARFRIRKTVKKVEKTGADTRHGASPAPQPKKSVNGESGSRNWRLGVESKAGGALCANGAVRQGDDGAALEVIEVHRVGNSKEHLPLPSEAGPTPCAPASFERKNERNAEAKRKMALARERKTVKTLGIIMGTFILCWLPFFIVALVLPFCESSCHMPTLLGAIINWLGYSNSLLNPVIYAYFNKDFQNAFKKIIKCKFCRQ
T1 sequence (P34969 1-432): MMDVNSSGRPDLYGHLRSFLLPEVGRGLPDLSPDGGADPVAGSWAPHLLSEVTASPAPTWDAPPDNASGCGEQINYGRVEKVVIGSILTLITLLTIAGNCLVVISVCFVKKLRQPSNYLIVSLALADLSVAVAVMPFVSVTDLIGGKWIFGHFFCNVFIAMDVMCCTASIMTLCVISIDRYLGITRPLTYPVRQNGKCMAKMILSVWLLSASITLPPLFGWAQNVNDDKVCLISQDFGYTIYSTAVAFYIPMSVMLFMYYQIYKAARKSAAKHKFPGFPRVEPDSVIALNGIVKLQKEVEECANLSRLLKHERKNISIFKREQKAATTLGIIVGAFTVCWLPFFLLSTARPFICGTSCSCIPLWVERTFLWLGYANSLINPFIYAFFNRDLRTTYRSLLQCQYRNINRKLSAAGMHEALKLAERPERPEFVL
human 5-HT2Cedited receptor, sequence (P28335 33-458 limits assumed): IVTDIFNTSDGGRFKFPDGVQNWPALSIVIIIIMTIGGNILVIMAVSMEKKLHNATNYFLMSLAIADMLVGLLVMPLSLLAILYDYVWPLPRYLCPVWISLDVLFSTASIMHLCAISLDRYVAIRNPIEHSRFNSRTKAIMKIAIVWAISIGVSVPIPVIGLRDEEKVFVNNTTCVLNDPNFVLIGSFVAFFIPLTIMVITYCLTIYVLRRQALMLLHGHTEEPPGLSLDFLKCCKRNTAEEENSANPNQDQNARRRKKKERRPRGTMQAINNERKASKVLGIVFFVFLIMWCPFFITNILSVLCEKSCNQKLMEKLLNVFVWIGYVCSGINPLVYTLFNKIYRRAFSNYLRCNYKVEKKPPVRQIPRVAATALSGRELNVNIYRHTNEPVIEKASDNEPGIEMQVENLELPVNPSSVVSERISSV
human 5-HT7a receptor, sequence (P34969 other isoform, or with tags, fused parts or gaps): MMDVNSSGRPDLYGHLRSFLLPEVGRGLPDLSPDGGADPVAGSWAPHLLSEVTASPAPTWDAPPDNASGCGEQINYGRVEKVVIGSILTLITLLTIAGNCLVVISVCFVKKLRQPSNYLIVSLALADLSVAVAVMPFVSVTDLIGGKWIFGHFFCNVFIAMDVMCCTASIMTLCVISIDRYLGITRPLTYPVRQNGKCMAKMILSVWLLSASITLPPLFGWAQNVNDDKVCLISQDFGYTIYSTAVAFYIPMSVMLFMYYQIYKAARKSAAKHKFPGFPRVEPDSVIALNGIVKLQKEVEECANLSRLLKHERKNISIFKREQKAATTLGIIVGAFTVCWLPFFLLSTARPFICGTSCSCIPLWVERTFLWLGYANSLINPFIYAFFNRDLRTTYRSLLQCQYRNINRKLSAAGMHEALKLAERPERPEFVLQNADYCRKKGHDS

## O=C1Nc2cccc3c2C1(CCCCN1CC=C(c2ccccc2)CC1)CCC3 (stereo not drawn) [DR4004, reference compound]
h5-HT7R [1]
  induction of ERK phosphorylation: none of them were able to induce ERK activation

## O=c1[nH]c2ccccc2n1CCCCCN1CCCN(c2ccc(F)cc2)CC1 [JLB060]
h5-HT7R [1]
  induction of ERK phosphorylation: robustly induce ERK phosphorylation
Human 5-HT2A receptor
  IC50: 137 nM
  Ki: 23 nM
Human 5-HT1A receptor
  IC50: 850 nM
  Ki: 425 nM
Human 5-HT7a receptor
  IC50: 0.98 nM
  Ki: 0.69 nM
[2]
  IC50: 902 nM
  Ki: 148 nM

## O=C(c1ccc(F)cc1)C1CCN(CCCCn2c(=O)[nH]c3ccccc32)CC1 [MOA51]
h5-HT7R [3]
  inhibition of cAMP production when tested alone (inverse agonist effect): around 75%
Human 5-HT2A receptor
  IC50: 3.29 nM
  Ki: 0.54 nM
Human 5-HT1A receptor
  IC50: 885 nM
  Ki: 442 nM
Human 5-HT7a receptor
  IC50: 0.29 nM
  Ki: 0.2 nM
[2]
  IC50: 699 nM
  Ki: 115 nM

## CC(C)(C)n1nc(-c2ccc(Cl)cc2)c2c(N)ncnc21 [PP2]
h5-HT7R [4]
  block of Serodolin-induced ERK phosphorylation: 99%
  block of Serodolin-induced c-SRC phosphorylation: 100%

## Nc1ncnc2c1cnn2-c1ccccc1 [PP3]
h5-HT7R [4]
  block of Serodolin-induced ERK phosphorylation: inactive

## CC(C)C[C@H](CN)CC(=O)O [Pregabalin, reference compound]
C57BL/6 mice; 9 consecutive days
  tolerance after repetitive administration (AUC): significant decrease of the analgesic effect
C57BL/6 mice; first (D+10) and last (D+18) administration, 1 h and 2 h
  mechanical response threshold vs vehicle: significant increase of the mechanical response threshold
